Laboratory results published in PubChem BioAssay AID1259407 (Chemical Carcinogenesis Research Information System (CCRIS), 2018).
Activity calls are given as the source filed them. No rule for the calls is given here.

Tested on: CCRIS mutagenicity, Ames/micronucleus/aberration tests
Experiment: CCRIS mutagenicity studies
Conditions: Test System: AMES SALMONELLA TYPHIMURIUM
[1] = Strain/Indicator: TA98, Metabolic Activation: NONE, Method: STANDARD PLATE
[2] = Strain/Indicator: TA98, Metabolic Activation: RAT, LIVER, S-9, AROCLOR 1254, Method: STANDARD PLATE
[3] = Strain/Indicator: TA100, Metabolic Activation: NONE, Method: STANDARD PLATE
[4] = Strain/Indicator: TA100, Metabolic Activation: RAT, LIVER, S-9, AROCLOR 1254, Method: STANDARD PLATE
[5] = Strain/Indicator: TA1538, Metabolic Activation: NONE, Method: STANDARD PLATE
[6] = Strain/Indicator: TA1538, Metabolic Activation: RAT, LIVER, S-9, AROCLOR 1254, Method: STANDARD PLATE

Measured: mutagenic call

COc1cc(-c2oc3cc(O)cc(O)c3c(=O)c2O)ccc1O
inactive: Strain/Indicator: TA97, Metabolic Activation: NONE, Method: STANDARD PLATE inactive; negative | Strain/Indicator: TA97, Metabolic Activation: RAT, LIVER, S-9, AROCLOR 1254, Method: STANDARD PLATE inactive; negative | [1] inactive; negative | [2] inactive; negative | [3] inactive; negative | [4] inactive; negative | Strain/Indicator: TA102, Metabolic Activation: NONE, Method: STANDARD PLATE inactive; negative | Strain/Indicator: TA102, Metabolic Activation: RAT, LIVER, S-9, AROCLOR 1254, Method: STANDARD PLATE inactive; negative | Strain/Indicator: TA1535, Metabolic Activation: NONE, Method: STANDARD PLATE inactive; negative | Strain/Indicator: TA1535, Metabolic Activation: RAT, LIVER, S-9, AROCLOR 1254, Method: STANDARD PLATE inactive; negative | [5] inactive; negative | [6] inactive; negative

CCCCCCCCCCCCCl
inactive: Strain/Indicator: TA97, Metabolic Activation: HAMSTER, LIVER, S-9, AROCLOR 1254 (10 OR 30%), Method: PREINCUBATION inactive; negative | Strain/Indicator: TA97, Metabolic Activation: NONE, Method: PREINCUBATION inactive; negative | Strain/Indicator: TA97, Metabolic Activation: RAT, LIVER, S-9, AROCLOR 1254 (10 OR 30%), Method: PREINCUBATION inactive; negative | Strain/Indicator: TA98, Metabolic Activation: HAMSTER, LIVER, S-9, AROCLOR 1254 (10 OR 30%), Method: PREINCUBATION inactive; negative | Strain/Indicator: TA98, Metabolic Activation: NONE, Method: PREINCUBATION inactive; negative | Strain/Indicator: TA98, Metabolic Activation: RAT, LIVER, S-9, AROCLOR 1254 (10 OR 30%), Method: PREINCUBATION inactive; negative | Strain/Indicator: TA100, Metabolic Activation: HAMSTER, LIVER, S-9, AROCLOR 1254 (10 OR 30%), Method: PREINCUBATION inactive; negative | Strain/Indicator: TA100, Metabolic Activation: NONE, Method: PREINCUBATION inactive; negative | Strain/Indicator: TA100, Metabolic Activation: RAT, LIVER, S-9, AROCLOR 1254 (10 OR 30%), Method: PREINCUBATION inactive; negative | Strain/Indicator: TA1535, Metabolic Activation: HAMSTER, LIVER, S-9, AROCLOR 1254 (10 OR 30%), Method: PREINCUBATION inactive; negative | Strain/Indicator: TA1535, Metabolic Activation: NONE, Method: PREINCUBATION inactive; negative | Strain/Indicator: TA1535, Metabolic Activation: RAT, LIVER, S-9, AROCLOR 1254 (10 OR 30%), Method: PREINCUBATION inactive; negative | Strain/Indicator: TA1537, Metabolic Activation: HAMSTER, LIVER, S-9, AROCLOR 1254 (30%), Method: PREINCUBATION inactive; negative | Strain/Indicator: TA1537, Metabolic Activation: NONE, Method: PREINCUBATION inactive; negative | Strain/Indicator: TA1537, Metabolic Activation: RAT, LIVER, S-9, AROCLOR 1254 (30%), Method: PREINCUBATION inactive; negative

CC(C)c1cc(N)cc([N+](=O)[O-])c1N
inactive: [1] inactive; negative | [2] inactive; negative | [3] inactive; negative | [4] inactive; negative | [5] inactive; negative | [6] inactive; negative
